From ChEMBL document CHEMBL4507276 (2021)

Columns and labels:
Conditions in all cases: Compound concentration 1000.0 nM
[1] = molecular target: Mitogen-activated protein kinase kinase kinase kinase 4 (Homo sapiens) (UniProt O95819)
[2] = test system: Tyrosine-protein kinase ABL1 (Homo sapiens), P00519 [T315I]
[3] = molecular target: Cyclin-dependent kinase 13 (Homo sapiens) (UniProt Q14004)
[4] = molecular target: Mitogen-activated protein kinase kinase kinase 11 (Homo sapiens) (UniProt Q16584)
Mitogen-activated protein kinase kinase kinase 11 (Homo sapiens), sequence (Q16584 whole entry, looked up): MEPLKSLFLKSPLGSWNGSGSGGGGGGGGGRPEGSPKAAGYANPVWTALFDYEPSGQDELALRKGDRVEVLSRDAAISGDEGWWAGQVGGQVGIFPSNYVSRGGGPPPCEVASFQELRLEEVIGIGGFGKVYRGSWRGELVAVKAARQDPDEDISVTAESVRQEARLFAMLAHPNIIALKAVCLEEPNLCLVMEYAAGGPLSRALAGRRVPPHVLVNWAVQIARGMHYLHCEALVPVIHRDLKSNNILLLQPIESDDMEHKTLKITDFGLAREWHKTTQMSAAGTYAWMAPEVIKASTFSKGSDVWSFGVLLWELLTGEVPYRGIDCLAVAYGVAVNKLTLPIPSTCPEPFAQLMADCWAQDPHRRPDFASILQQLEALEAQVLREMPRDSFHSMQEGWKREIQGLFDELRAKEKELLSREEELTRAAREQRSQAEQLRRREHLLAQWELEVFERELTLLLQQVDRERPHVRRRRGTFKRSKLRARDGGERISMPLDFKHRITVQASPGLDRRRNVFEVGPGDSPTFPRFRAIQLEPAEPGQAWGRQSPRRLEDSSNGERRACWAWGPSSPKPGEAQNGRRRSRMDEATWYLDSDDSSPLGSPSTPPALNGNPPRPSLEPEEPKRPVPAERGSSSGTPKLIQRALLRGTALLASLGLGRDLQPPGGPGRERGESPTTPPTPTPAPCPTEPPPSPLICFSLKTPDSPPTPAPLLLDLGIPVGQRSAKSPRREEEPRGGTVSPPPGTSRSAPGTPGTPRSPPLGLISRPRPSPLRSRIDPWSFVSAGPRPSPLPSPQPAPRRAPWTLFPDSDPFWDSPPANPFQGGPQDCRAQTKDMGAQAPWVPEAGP

[5] = molecular target: Leukocyte tyrosine kinase receptor (Homo sapiens) (UniProt P29376)
Leukocyte tyrosine kinase receptor (Homo sapiens), sequence (P29376 whole entry): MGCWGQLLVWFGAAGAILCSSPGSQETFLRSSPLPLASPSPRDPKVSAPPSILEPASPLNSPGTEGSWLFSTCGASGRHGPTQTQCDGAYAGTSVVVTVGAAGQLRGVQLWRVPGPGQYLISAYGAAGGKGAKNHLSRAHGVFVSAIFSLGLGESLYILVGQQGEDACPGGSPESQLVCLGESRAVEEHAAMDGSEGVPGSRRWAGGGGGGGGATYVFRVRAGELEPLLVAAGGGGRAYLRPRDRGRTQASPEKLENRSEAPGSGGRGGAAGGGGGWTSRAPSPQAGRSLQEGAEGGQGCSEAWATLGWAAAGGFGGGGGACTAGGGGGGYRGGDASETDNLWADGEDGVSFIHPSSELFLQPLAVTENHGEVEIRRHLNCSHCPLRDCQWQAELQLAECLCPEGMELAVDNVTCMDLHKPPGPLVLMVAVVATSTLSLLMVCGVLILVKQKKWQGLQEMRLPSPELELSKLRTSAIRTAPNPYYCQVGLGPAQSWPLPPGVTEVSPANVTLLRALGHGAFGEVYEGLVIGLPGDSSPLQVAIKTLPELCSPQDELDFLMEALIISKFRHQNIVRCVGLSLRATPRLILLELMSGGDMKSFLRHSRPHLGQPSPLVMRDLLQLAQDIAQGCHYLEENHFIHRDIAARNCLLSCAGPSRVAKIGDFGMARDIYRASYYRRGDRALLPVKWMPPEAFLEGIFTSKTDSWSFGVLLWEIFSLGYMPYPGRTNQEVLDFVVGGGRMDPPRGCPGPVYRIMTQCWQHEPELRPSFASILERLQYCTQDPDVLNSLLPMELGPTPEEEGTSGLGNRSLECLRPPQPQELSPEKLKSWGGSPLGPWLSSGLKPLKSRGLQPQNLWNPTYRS

[6] = molecular target: T1, Serine/threonine-protein kinase 4 (Homo sapiens) (UniProt Q13043)
T1 sequence (whole entry): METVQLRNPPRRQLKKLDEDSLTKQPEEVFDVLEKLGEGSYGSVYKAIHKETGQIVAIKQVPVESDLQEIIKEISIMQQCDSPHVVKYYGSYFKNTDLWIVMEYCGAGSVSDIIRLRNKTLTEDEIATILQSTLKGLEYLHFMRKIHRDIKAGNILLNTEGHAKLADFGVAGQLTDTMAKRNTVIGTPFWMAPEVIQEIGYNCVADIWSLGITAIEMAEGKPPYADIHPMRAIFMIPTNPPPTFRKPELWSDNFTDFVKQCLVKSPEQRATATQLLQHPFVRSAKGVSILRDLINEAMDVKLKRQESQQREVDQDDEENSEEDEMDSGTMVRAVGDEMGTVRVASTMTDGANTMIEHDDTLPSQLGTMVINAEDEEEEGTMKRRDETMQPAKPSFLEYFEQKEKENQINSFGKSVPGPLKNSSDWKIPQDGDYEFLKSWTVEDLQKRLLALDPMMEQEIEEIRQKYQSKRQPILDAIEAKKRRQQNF

[7] = molecular target: 5'-AMP-activated protein kinase catalytic subunit alpha-1 (Homo sapiens) (UniProt Q13131)
[8] = molecular target: Serine/threonine-protein kinase BRSK2 (Homo sapiens) (UniProt Q8IWQ3)
[9] = molecular target: Tyrosine-protein kinase JAK2 (Homo sapiens) (UniProt O60674)
[10] = molecular target: Serine/threonine-protein kinase PAK 6 (Homo sapiens) (UniProt Q9NQU5)
[11] = molecular target: Mitogen-activated protein kinase kinase kinase 15 (Homo sapiens) (UniProt Q6ZN16)
[12] = test system: Receptor-type tyrosine-protein kinase FLT3 (Homo sapiens), P36888 [N841I]
[13] = molecular target: Protein kinase C delta type (Homo sapiens) (UniProt Q05655)
[14] = molecular target: Phosphatidylinositol 4,5-bisphosphate 3-kinase catalytic subunit gamma isoform (Homo sapiens) (UniProt P48736)
Phosphatidylinositol 4,5-bisphosphate 3-kinase catalytic subunit gamma isoform (Homo sapiens), sequence (P48736 whole entry, looked up, canonical isoform): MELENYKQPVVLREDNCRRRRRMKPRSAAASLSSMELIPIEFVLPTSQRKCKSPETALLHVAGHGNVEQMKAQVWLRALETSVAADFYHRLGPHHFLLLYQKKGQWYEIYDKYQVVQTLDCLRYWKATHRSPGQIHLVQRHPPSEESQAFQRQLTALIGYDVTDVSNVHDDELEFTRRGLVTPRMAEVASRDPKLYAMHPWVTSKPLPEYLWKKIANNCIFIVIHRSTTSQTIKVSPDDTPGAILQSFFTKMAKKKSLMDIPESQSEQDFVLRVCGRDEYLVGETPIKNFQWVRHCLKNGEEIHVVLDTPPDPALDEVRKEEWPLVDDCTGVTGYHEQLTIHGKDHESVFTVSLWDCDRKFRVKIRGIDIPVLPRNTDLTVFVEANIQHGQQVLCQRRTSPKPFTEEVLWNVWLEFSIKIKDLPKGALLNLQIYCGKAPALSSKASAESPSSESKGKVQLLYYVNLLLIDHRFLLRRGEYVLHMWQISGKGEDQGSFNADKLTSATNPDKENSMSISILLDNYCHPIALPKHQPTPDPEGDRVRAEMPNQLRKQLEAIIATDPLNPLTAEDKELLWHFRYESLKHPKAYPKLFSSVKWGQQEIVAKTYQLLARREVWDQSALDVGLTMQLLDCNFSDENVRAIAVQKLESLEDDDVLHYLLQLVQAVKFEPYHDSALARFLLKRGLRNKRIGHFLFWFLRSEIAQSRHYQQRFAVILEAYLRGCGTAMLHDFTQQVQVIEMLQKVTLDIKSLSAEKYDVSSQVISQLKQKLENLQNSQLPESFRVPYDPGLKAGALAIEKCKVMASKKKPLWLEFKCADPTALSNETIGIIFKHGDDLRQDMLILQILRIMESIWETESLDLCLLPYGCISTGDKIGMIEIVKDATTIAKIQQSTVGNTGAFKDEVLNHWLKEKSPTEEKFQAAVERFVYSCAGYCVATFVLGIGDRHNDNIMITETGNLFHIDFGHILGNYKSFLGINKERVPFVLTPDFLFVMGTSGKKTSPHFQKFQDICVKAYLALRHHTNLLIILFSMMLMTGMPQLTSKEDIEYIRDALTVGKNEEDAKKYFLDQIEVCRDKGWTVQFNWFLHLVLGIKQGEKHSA

[15] = molecular target: T2, Ephrin type-B receptor 1 (Homo sapiens) (UniProt P54762)
T2 sequence (whole entry): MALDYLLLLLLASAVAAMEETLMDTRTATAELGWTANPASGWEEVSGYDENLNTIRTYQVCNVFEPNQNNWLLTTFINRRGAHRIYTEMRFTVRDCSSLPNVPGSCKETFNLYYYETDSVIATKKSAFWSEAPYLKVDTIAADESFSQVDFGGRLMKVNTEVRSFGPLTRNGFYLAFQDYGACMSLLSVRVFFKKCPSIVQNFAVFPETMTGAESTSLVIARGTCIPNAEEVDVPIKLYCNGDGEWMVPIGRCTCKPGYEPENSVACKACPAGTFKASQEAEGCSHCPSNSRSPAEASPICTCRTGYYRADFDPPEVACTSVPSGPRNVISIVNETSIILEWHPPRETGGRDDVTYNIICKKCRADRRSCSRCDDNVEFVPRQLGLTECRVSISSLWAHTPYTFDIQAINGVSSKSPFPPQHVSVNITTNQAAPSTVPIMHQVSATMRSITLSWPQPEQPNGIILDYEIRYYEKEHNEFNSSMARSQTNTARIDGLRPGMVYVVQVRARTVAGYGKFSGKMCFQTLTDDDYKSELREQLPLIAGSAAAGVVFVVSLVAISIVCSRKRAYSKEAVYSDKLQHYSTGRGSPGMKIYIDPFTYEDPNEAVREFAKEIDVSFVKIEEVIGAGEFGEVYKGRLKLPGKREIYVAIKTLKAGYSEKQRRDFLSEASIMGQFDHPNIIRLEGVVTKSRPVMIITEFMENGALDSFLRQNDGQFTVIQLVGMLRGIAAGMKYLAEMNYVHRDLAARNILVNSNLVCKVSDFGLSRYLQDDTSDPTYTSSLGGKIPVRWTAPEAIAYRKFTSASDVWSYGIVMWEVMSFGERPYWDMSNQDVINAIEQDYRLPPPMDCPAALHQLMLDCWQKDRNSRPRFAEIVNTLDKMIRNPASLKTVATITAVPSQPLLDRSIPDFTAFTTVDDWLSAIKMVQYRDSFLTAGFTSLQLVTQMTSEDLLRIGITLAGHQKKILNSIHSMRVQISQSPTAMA

[16] = molecular target: Serine/threonine-protein kinase PLK2 (Homo sapiens) (UniProt Q9NYY3)
[17] = molecular target: Dual specificity protein kinase CLK3 (Homo sapiens) (UniProt P49761)
[18] = molecular target: Receptor tyrosine-protein kinase erbB-2 (Homo sapiens) (UniProt P04626)
[19] = molecular target: Tyrosine-protein kinase Yes (Homo sapiens) (UniProt P07947)
[20] = test system: Mast/stem cell growth factor receptor Kit (Homo sapiens), P10721 [D816V]
Mast/stem cell growth factor receptor Kit (Homo sapiens), P10721 [D816V], sequence (P10721 whole entry D816V): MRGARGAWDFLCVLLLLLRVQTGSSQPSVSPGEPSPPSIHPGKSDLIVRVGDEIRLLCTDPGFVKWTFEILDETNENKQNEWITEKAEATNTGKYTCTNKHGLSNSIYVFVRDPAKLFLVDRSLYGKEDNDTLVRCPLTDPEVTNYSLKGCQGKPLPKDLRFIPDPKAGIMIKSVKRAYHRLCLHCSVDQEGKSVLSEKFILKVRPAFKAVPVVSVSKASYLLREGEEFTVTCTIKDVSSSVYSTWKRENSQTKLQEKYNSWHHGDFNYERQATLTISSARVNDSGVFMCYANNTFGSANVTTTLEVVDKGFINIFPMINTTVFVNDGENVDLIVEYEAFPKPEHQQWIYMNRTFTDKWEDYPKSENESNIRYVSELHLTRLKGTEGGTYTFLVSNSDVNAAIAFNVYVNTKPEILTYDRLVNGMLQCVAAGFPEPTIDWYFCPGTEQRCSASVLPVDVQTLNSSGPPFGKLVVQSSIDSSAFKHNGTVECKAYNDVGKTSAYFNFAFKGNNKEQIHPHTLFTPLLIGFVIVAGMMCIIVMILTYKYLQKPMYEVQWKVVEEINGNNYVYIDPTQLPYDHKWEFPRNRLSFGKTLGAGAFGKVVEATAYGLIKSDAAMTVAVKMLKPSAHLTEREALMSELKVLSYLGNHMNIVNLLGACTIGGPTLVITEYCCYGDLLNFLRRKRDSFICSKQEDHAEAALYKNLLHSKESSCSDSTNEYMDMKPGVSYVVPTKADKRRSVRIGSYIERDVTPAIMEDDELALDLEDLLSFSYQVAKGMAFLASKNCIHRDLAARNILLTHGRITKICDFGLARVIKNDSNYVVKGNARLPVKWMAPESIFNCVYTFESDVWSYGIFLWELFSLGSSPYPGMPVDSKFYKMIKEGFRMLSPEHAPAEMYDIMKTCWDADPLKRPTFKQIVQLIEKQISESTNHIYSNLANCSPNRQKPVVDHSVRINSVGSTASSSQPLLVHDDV

Measured: residual activity

Mitogen-activated protein kinase kinase kinase kinase 4 (Homo sapiens), sequence (O95819 2-1239 limits assumed): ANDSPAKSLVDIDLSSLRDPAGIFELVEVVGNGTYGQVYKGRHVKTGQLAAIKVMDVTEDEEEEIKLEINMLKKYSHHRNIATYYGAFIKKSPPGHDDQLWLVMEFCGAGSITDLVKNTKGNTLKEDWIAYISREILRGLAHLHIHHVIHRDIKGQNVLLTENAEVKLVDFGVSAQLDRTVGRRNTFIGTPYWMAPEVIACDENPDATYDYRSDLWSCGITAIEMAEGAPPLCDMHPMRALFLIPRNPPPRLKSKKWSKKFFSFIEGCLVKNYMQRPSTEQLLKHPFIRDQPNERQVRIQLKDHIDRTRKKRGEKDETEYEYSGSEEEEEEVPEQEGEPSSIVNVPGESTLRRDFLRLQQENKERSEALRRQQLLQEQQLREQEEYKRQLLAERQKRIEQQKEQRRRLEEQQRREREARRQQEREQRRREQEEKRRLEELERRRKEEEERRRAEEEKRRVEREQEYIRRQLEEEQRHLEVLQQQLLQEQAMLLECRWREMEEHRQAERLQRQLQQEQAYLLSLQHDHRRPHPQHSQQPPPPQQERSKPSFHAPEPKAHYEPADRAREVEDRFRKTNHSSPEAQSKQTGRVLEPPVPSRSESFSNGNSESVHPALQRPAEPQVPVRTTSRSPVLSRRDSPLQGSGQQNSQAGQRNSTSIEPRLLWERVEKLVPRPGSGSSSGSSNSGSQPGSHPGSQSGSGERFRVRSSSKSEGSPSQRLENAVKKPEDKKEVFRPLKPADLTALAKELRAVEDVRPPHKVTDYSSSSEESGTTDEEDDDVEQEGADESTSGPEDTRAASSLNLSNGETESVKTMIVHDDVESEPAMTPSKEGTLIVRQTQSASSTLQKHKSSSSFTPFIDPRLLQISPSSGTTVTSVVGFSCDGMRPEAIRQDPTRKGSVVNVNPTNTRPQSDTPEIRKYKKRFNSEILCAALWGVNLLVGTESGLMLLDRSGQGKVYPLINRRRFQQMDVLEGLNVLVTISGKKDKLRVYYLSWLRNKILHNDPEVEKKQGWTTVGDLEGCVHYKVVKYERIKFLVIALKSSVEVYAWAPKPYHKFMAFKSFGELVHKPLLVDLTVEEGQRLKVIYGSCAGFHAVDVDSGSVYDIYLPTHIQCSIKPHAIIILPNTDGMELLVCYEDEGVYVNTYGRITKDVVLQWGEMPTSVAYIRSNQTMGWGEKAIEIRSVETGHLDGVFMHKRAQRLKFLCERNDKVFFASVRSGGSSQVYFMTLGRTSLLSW

CN(C)C(=O)Cn1cc(-c2nc(C3(c4ccc(-c5cnc(N)nc5)cc4)CC3)no2)cn1 [BI 0153]
inactive: [1] 66% | [2] 100% | [3] 91% | [4] 87% | [5] 90% | [6] 90% | [7] 98% | [8] 77% | [9] 65% | [10] 100% | [11] 100% | [12] 100% | [13] 67% | [14] 85% | [15] 100% | [16] 93% | [17] 100% | [18] 80% | [19] 87% | [20] 92%

CN(C)C(=O)Cn1cc(-c2nc([C@@](C)(c3ccc(-c4cnc(N)nc4)cc3)C3CC3)no2)cn1 [BI 665915]
inactive: [1] 90% | [2] 90% | [3] 83% | [4] 77% | [5] 89% | [6] 90% | [7] 95% | [8] 100% | [9] 73% | [10] 100% | [11] 99% | [12] 83% | [13] 98% | [14] 72% | [15] 100% | [16] 56% | [17] 100% | [18] 100% | [19] 94% | [20] 94%
